The values that follow come from patent US20220243210A1, “ANGIOTENSIN II TYPE 1 RECEPTOR TARGETED OLIGONUCLEOTIDES AND USES THEREOF” (Ionis Pharmaceuticals, Inc., priority 2019, published 2022).

Oligonucleotides are written 5' to 3', each unit as a sugar letter and its base; * is a phosphorothioate linkage, no mark a phosphodiester; rarer units and linkages stand in square brackets, end groups in braces. Plain capitals give the bases only. {Cy3} = Cy3 fluorescent dye label; k = constrained ethyl (cEt); [5mC] = 5-methylcytosine; d = 2'-deoxy (DNA)

The target of one series is T1, human AGTR1 (Homo sapiens, UniProt P30556).
T1 construct: host or cells: HEK293 (HEK-AGTR1 FAP cells)
T1 sequence (P30556 1-359): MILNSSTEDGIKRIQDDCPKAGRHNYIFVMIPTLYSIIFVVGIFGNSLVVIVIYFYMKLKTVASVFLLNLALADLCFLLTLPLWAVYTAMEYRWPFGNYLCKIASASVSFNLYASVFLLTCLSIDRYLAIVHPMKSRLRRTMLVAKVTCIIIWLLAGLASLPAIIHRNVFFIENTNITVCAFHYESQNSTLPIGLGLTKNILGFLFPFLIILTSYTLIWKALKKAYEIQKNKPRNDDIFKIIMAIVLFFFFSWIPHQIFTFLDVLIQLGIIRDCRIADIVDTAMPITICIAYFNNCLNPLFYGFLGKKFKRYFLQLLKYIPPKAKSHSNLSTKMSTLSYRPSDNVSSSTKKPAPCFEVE
Kind of series: AGTR1 signaling, IP-One Gq kit (IP1 accumulation), HEK-AGTR1 FAP cells. The note with it: 90 minutes. The class given is cell-based. As to the method: Activated AGTR1 couples to the Gαq subunit of heterotrimeric G proteins, which activates the phospholipase C (PLC) and subsequently inositol 1,4,5-trisphosphate (IP3) signaling cascade. AGTR1 signaling was measured using an IP-One Gq kit (cisbio #62IPAPEB). The kit detects the accumulation of inositol monophosphate (IP1), a stable downstream metabolite of IP3 induced by activation of a phospholipase C (PLC) cascade.
An additional control compound, AngII, which consists of the peptide motif […], was also tested. […] AGTR1 activation was measured using the IP-One Gq kit.

The subject of another series is mouse MALAT RNA. Briefly: MALAT RNA reduction in vivo, C57BL6/J mice, with or without Losartan pretreatment. The following applies: no Losartan, sacrifice 4 days after dose. As to the method:
Compound Nos. 1213287 and 1295887 are described in Table 1 above. Compound Nos. 1213287 and 1295887 were tested in C57BL6/J mice with or without pretreatment with the AGTR1 antagonist, Losartan. The mice were divided into groups of 3 mice each. Mice receiving Losartan were treated with 150 mg/L in the drinking water for 10 days. Each mouse received a single IV dose on day 10 of either Compound No. 1213287 or 1295887 of either 1.2 or 3.6 μmol/kg. The mice were then sacrificed on day 14. Heart, adipose, adrenal, kidney, and liver tissue was then collected and homogenized and RNA analysis was performed. A group of 4 mice received PBS as a negative control.
RNA was extracted from heart, adipose, adrenal, kidney, and liver tissue for real-time PCR analysis of measurement of RNA expression of MALAT using primer probe set mMALAT1 #2 (forward sequence […] (SEQ ID NO: 5); reverse sequence […] (SEQ ID NO: 6); probe sequence […] (SEQ ID NO: 7)). Results are presented as percent change of RNA, relative to PBS control, normalized to mouse GAPDH.

In the case of AngII, the IP1 accumulation on human AGTR1 (0.0256 nM) was determined as 1.183 µM; on human AGTR1 (0.128 nM) it was 2.569 µM; at human AGTR1 (0.64 nM), 1.71 µM; on human AGTR1 (3.2 nM) it was 4.465 µM; at human AGTR1 (16 nM), 8.913 µM; on human AGTR1 (80 nM) it was 15.383 µM. For the same substance, the IP1 accumulation was determined as 13.89 µM on human AGTR1 (400 nM) and 14.825 µM on human AGTR1 (2000 nM).

With “Compound No. 1213287: Control unconjugated 19-nucleotide modified oligonucleotide TCAGCATTCTAATAGCAGC with a 3′ Cy3 label (antisense dTd[5mC]dAkG*k[5mC]*kA*dT*dT*d[5mC]*dT*dA*dA*dT*dA*dG*d[5mC]*kA*kG*k[5mC]-{Cy3}) [reference compound]”, the “MALAT RNA (% control)” value in the series with mouse MALAT RNA (Adipose, single IV 1.2 μmol/kg) was 78.0 % control; with mouse MALAT RNA (Adipose, single IV 3.6 μmol/kg), 53.0 % control; in the series on mouse MALAT RNA (Adrenal, single IV 1.2 μmol/kg), 78.7 % control; with mouse MALAT RNA (Adrenal, single IV 3.6 μmol/kg) it was 50.0 % control; with mouse MALAT RNA (Heart, single IV 1.2 μmol/kg), 77.0 % control; in the series on mouse MALAT RNA (Heart, single IV 3.6 μmol/kg), 57.3 % control. Moreover, the “MALAT RNA (% control)” value was 58.3 % control in the series on mouse MALAT RNA (Kidney, single IV 1.2 μmol/kg); 42.3 % control in the series with mouse MALAT RNA (Kidney, single IV 3.6 μmol/kg); 53.7 % control in the series with mouse MALAT RNA (Liver, single IV 1.2 μmol/kg); 35.0 % control in the series on mouse MALAT RNA (Liver, single IV 3.6 μmol/kg).
